The text below walks through data of patent US20140221346A1, “THERAPEUTIC COMPOUNDS” (Gilead Sciences, Inc., priority 2013, published 2014).

One may read the inhibition as the relative decrease from the control value, in per cent. Broadly, the CC50 is the concentration giving 50% cytotoxicity. High values mean better tolerance by the cells, low ones harm at low concentration.

Series [1] has as its system HIV-IIIb. The experiment in a line: Test A: Antiviral Assay in MT4 Cells. Type of series: cell-based, HIV-1. Particulars: Human immunodeficiency virus 1, IIIB, MT4, 120 h, read-out: % inhibition at 3 μM. The method, then: (§1) For the antiviral assay, 40 μL of 1× test concentration of 3-fold serially diluted compound in culture medium with 10% FBS was added to each well of a 384-well plate (10 concentrations) in quadruplicate. MT-4 cells were next mixed with HIV-IIIb at an m.o.i of 0.003 for 1 hour, after which time 35 μL of virus/cell mixture (2000 cells) was immediately added to each well containing 40 μL of diluted compound. The plates were then incubated at 37° C. for 5 days. After 5 days of incubation, 25 μl of 2× concentrated CellTiter-Glo™ Reagent (catalog #G7571, Promega Biosciences, Inc., Madison, Wis.) was added to each well containing MT-4 cells. Cell lysis was carried out by incubating at room temperature for 10 min and then chemiluminescence was read.

The nature of series [2]: Test B: Cytotoxicity Assay. The format is cell-based. Particulars: human, uninfected MT-4 cells, same protocol as Test A, CellTiter-Glo. The procedure: as §1
Compound cytotoxicity and the corresponding CC50 values was determined using the same protocol as described in the antiviral assay (Test A) except that uninfected cells were used.
For orientation: ATP-based viability assays read luminescence as a measure of living cells.

Consider `COc1cc(-c2ccc(N)nc2C(Cc2cc(F)cc(F)c2)NC(=O)Cc2c[nH]c3ccc(F)cc23)ccn1` (stereo not drawn) [Compound 10, N-(1-(6-amino-2′-methoxy-[3,4′-bipyridin]-2-yl)-2-(3,5-difluorophenyl)ethyl)-2-(5-fluoro-1H-indol-3-yl)acetamide], for which the inhibition at 3 µM in series [1] was 38%. In addition, half-maximal cytotoxicity in series [2] (CC50 at 5 days) was put at 23.8 µM.
On to `NC(=O)c1cc(-c2cnc(NC3CCOC3)nc2[C@H](Cc2cc(F)cc(F)c2)NC(=O)Cn2nc(C(F)F)c3c2C(F)(F)CCC3(F)F)ccc1F` (stereo partly drawn) [Compound 25, 5-(4-((S)-1-(2-(3-(difluoromethyl)-4,4,7,7-tetrafluoro-4,5,6,7-tetrahydro-1H-indazol-1-yl)acetamido)-2-(3,5-difluorophenyl)ethyl)-2-((tetrahydrofuran-3-yl)amino)pyrimidin-5-yl)-2-fluorobenzamide], for which, in series [1], the inhibition at 3 µM came out at 69%. Moreover, it took 37.7 µM to reach half-maximal cytotoxicity in series [2] (CC50 at 5 days).
For `O=C(Cn1nc(C(F)F)c2c1C(F)(F)CCC2(F)F)N[C@@H](Cc1cc(F)cc(F)c1)c1nc(-n2cncn2)ncc1-c1ccc2c(c1)C(=O)NC2` [Compound 29D, (S)-2-(3-(difluoromethyl)-4,4,7,7-tetrafluoro-4,5,6,7-tetrahydro-1H-indazol-1-yl)-N-(2-(3,5-difluorophenyl)-1-(5-(3-oxoisoindolin-5-yl)-2-(1H-1,2,4-triazol-1-yl)pyrimidin-4-yl)ethyl)acetamide], the inhibition at 3 µM in series [1] is 101%. In series [2], this compound showed a CC50 at 5 days of 40 µM.
For `Nc1ccc(-c2cccc(OCC(F)(F)F)c2)c(C(Cc2cc(F)cc(F)c2)NC(=O)Cc2c[nH]c3ccc(F)cc23)n1` (stereo not drawn) [Compound 8, N-(1-(6-amino-3-(3-(2,2,2-trifluoroethoxy)phenyl)pyridin-2-yl)-2-(3,5-difluorophenyl)ethyl)-2-(5-fluoro-1H-indol-3-yl)acetamide] the same measures were 50% and 11.7 µM.
In the same order, the values of `CN(C)CCNc1ncc(-c2ccc(F)c(C(N)=O)c2)c([C@H](Cc2cc(F)cc(F)c2)NC(=O)Cn2nc(C(F)F)c3c2C(F)(F)CCC3(F)F)n1` [Compound 16B, (S)-5-(4-(1-(2-(3-(difluoromethyl)-4,4,7,7-tetrafluoro-4,5,6,7-tetrahydro-1H-indazol-1-yl)acetamido)-2-(3,5-difluorophenyl)ethyl)-2-((2-(dimethylamino)ethyl)amino)pyrimidin-5-yl)-2-fluorobenzamide] are 41% and 15.4 µM.
On to `NC(=O)c1cc(-c2cnc(NCCO)nc2[C@H](Cc2cc(F)cc(F)c2)NC(=O)Cn2nc(C(F)F)c3c2C(F)(F)CCC3(F)F)ccc1F` [Compound 26, (S)-5-(4-(1-(2-(3-(difluoromethyl)-4,4,7,7-tetrafluoro-4,5,6,7-tetrahydro-1H-indazol-1-yl)acetamido)-2-(3,5-difluorophenyl)ethyl)-2-((2-hydroxyethyl)amino)pyrimidin-5-yl)-2-fluorobenzamide], for which, in series [1], the inhibition at 3 µM was 86%. It took 19.9 µM to reach half-maximal cytotoxicity in series [2] (CC50 at 5 days).
Regarding `NC(=O)c1cc(-c2cnc(N3CCC(=O)CC3)nc2[C@H](Cc2cc(F)cc(F)c2)NC(=O)Cn2nc(C(F)F)c3c2C(F)(F)CCC3(F)F)ccc1F` [Compound 19C, (S)-5-(4-(1-(2-(3-(difluoromethyl)-4,4,7,7-tetrafluoro-4,5,6,7-tetrahydro-1H-indazol-1-yl)acetamido)-2-(3,5-difluorophenyl)ethyl)-2-(4-oxopiperidin-1-yl)pyrimidin-5-yl)-2-fluorobenzamide], in series [1], the inhibition at 3 µM turned out to be 26%. In addition, the CC50 at 5 days in series [2] is above 51.5 µM.
In the same order, the values of `Nc1ccc(-c2ccc(Oc3ccccc3)cc2)c(C(Cc2cc(F)cc(F)c2)NC(=O)Cc2c[nH]c3ccc(F)cc23)n1` (stereo not drawn) [Compound 7, N-(1-(6-amino-3-(4-phenoxyphenyl)pyridin-2-yl)-2-(3,5-difluorophenyl)ethyl)-2-(5-fluoro-1H-indol-3-yl)acetamide] are 37% and 11.5 µM.
With `COCCNc1ncc(-c2ccc(F)c(C(N)=O)c2)c([C@@H](Cc2cc(F)cc(F)c2)NC(=O)Cn2nc(C(F)(F)F)c3c2CCCC3)n1` [Compound 11J, (R)-5-(4-(2-(3,5-difluorophenyl)-1-(2-(3-(trifluoromethyl)-4,5,6,7-tetrahydro-1H-indazol-1-yl)acetamido)ethyl)-2-((2-methoxyethyl)amino)pyrimidin-5-yl)-2-fluorobenzamide], in series [1], the inhibition at 3 µM was 0%. The midpoint of cytotoxicity in series [2], the CC50 at 5 days, lay at 16.3 µM.
